Measurements as given in patent US20100311759A1, “ANTIPARASITIC AGENT FOR FISH AND METHOD OF CONTROLLING PROLIFERATION OF FISH PARASITES” (NIPPON SUISAN KAISHA, LTD., priority 2007, published 2010).

What follows are compounds tested on Cryptocaryon irritans (assay: Examples 3 and 4: oral administration of single inhibitors and a combination, body length of Cryptocaryon irritans on Pagrus major (FIG. 4)). Details: 60 mg/kg fish body weight/day for three days; 60 parasites per plot; P≦0.01.
Assay type: in vivo
Text: During the rearing period, 1.4 liters/min. of seawater was supplied. […] After exposure, seven fish each were moved into six 100-liter aquariums. During the rearing period, 1.4 liters/min. of seawater was supplied.

| Compound | growth rate of parasites (body length as percentage of control plot), difference from control plot |
| --- | --- |
| COc1cc(Cc2cnc(N)nc2N)cc(OC)c1OC [trimethoprim] | statistically significant difference |
| CN(Cc1cnc2nc(N)nc(N)c2n1)c1ccc(C(=O)N[C@@H](CCC(=O)O)C(=O)O)cc1 [methotrexate] | statistically significant difference |
| N=C(N)c1ccc(OCCCCCOc2ccc(C(=N)N)cc2)cc1.O=S(=O)(O)CCO.O=S(=O)(O)CCO [PMD, isethionic acid pentamidine salt] | statistically significant difference |

Same assay, conditions: 300 mg/kg fish body weight/day for three days; 60 parasites per plot; P≦0.01

| Compound | growth rate of parasites (body length as percentage of control plot), difference from control plot |
| --- | --- |
| COc1cc(NS(=O)(=O)c2ccc(N)cc2)ncn1 [sulfamonomethoxine] | statistically significant difference |
| Cc1ccnc(NS(=O)(=O)c2ccc(N)cc2)n1 [sulfamerazine] | statistically significant difference |
| Cc1cc(NS(=O)(=O)c2ccc(N)cc2)nc(C)n1 [sulfisomidine] | statistically significant difference |
| COc1cc(NS(=O)(=O)c2ccc(N)cc2)nc(OC)n1 [sulfadimethoxine] | statistically significant difference |
| Cc1nnc(NS(=O)(=O)c2ccc(N)cc2)s1 [sulfamethizole] | statistically significant difference |
| sulfisozole | statistically significant difference |

These compounds were tested on Cryptocaryon irritans (assay: Example 1: oral administration against parasitism of Cryptocaryon irritans on Pagrus major (1)). Details: 50 mg trimethoprim/kg body weight/day orally three days; three days after the exposure.

| Compound | number of parasites (left gills, FIG. 1, control plot = one) |
| --- | --- |
| COc1cc(Cc2cnc(N)nc2N)cc(OC)c1OC [trimethoprim] | tend to be large |
